According to patent US20260130925A1, “METHODS FOR TREATING CANCER” (Genesis Molecular AI, Inc., priority 2022, published 2026):
Each block holds one compound with its values, some of them ahead of it.

Molecular target: T1, PI3Kα H1047R in T47D cells (Homo sapiens, UniProt P42336, H1047R)
T1 construct: endogenous in cells; host or cells: T47D
Test: PI3Kα cellular assay: T47D pAKT S473 HTRF
Type: cell-based
Settings: for T47D pAKT S473 HTRF IC50 (H1047R): T47D (H1047R) selectivity over SKBR3 (WT): T47D (H1047R) versus SKBR3 (WT) cells; for IC50: T47D cells (H1047R), serum starved, 1 hr compound, 20 ng/ml EGF 10 min
Procedure: PI3Kα cellular assay experimental procedure: SKBR3 or T47D cells are seeded in DMEM containing 10% FBS at 25 k cells/well into 96-well cell culture format. Cells are incubated overnight at 37° C. in a 5% CO2 incubator and the following day cell media is aspirated, adherent cells are washed 1× with room temperature PBS prior to serum-free media application. Cells are returned to 37° C. 5% CO2 incubator and incubated a further 16 hrs. Compounds are added to serum starved adherent cells with a top dose of 10,000 nM and 3× multiple dose reductions for a minimum dose of 0.5 nM diluted in DMSO. Cell/compound incubation continues for 1 hr in a 37° C., 5% CO2 incubator prior to 10 minute PIK3CA stimulation with 20 ng/ml EGF. Cells treated with 0.1% DMSO and 20 ng/mL EGF are employed as negative control, cells treated with 10 uM Alpelisib and 20 ng/mL EGF are employed as a positive control. After 10 mins, plates are removed from incubator and cells are lysed with buffer and shaking 45 minutes. 20 μL of lysate is transferred to an opti-384 plate and 2.5 μl of Phospho-AKT d2 antibody with 2.5 μl of Phospho-AKT Eu Cryptate solution in the detection buffer are added to each well. 384 well plate is left overnight at room temperature before reading HTRF on an Envision plate reader.

T1 sequence (P42336 whole entry H1047R): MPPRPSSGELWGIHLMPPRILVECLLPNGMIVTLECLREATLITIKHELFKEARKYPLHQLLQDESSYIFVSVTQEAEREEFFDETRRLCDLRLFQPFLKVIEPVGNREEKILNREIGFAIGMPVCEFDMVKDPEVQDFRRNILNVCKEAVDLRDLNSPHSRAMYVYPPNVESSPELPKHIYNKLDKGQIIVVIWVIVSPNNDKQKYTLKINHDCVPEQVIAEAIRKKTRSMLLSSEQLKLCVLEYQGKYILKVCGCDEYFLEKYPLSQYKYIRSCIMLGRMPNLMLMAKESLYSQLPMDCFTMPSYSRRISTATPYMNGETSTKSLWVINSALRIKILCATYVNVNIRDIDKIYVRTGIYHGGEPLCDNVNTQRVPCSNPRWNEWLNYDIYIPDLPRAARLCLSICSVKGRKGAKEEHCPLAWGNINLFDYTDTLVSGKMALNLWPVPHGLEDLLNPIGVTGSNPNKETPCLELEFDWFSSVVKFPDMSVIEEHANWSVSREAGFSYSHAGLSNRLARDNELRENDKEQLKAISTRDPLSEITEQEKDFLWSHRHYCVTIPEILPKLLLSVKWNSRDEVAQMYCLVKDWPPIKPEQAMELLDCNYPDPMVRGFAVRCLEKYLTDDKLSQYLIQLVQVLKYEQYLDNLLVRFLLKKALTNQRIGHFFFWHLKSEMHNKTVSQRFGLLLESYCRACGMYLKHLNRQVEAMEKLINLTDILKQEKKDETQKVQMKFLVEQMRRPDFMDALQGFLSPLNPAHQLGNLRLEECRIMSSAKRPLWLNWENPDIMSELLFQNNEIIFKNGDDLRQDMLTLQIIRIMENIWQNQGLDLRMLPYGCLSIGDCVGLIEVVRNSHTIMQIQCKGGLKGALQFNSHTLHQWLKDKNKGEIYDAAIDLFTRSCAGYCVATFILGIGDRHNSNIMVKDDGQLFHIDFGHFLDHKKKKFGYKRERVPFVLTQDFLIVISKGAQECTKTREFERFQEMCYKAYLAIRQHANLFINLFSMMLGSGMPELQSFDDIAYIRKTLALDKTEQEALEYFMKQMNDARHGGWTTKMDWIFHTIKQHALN
T1 sequence (P27986 whole entry partner): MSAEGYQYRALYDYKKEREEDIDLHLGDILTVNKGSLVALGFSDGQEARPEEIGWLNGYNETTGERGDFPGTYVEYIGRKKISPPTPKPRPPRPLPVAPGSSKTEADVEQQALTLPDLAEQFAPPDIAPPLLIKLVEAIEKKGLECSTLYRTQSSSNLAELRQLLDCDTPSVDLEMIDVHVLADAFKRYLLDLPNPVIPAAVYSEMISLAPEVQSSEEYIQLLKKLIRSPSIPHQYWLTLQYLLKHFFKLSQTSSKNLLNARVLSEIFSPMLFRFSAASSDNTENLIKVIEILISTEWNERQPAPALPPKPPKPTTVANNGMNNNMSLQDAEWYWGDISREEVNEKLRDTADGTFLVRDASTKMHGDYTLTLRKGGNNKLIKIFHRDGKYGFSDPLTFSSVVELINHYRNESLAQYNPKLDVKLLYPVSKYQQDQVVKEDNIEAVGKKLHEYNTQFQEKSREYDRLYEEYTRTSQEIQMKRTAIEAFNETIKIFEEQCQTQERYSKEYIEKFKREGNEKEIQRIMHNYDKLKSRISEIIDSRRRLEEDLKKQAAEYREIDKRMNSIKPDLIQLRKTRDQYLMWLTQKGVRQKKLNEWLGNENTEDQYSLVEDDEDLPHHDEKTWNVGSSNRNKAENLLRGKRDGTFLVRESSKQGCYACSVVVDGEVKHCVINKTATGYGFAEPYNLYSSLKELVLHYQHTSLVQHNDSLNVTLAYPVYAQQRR

SMILES: Cc1cc(C(C)Nc2ccccc2C(=O)O)c2nc(N3CCC(C)(C)CC3)nc(N)c2c1 (stereo not drawn) [Compound 3]
T47D pAKT S473 HTRF IC50 (H1047R): T47D (H1047R) selectivity over SKBR3 (WT): C (C denotes ≤5-fold) | IC50: ≥ 2000 nM

SMILES: Cc1cc(C(C)Nc2ccccc2C(=O)O)c2cc(OCc3ccccc3)nc(C(N)=O)c2c1 (stereo not drawn) [Compound 128]
T47D pAKT S473 HTRF IC50 (H1047R): T47D (H1047R) selectivity over SKBR3 (WT): A (A denotes >20-fold) | IC50: < 750 nM

SMILES: CCOc1nc(N2Cc3ccccc3C2)nc2c([C@@H](C)Nc3ccccc3C(=O)O)cc(C)cc12 [Compound 147]
T47D pAKT S473 HTRF IC50 (H1047R): T47D (H1047R) selectivity over SKBR3 (WT): C (C denotes ≤5-fold) | IC50: ≥ 2000 nM

SMILES: Cc1cc(C(C)Nc2ccccc2C(=O)O)c2nc(N3CCC(C)(C)CC3)nc(C#N)c2c1 (stereo not drawn) [Compound 61]
T47D pAKT S473 HTRF IC50 (H1047R): T47D (H1047R) selectivity over SKBR3 (WT): A (A denotes >20-fold) | IC50: < 750 nM

SMILES: Cc1cc([C@@H](C)Nc2ccccc2C(=O)O)c2cc(-c3ccnc(C4CC4)c3)ncc2c1 [Compound 89]
T47D pAKT S473 HTRF IC50 (H1047R): T47D (H1047R) selectivity over SKBR3 (WT): A (A denotes >20-fold) | IC50: < 750 nM

SMILES: Cc1cc([C@H](C)Nc2ccccc2C(=O)O)c2nc(N3Cc4ccccc4C3)nc(N3CC(O)C3)c2c1 [Compound 144]
T47D pAKT S473 HTRF IC50 (H1047R): T47D (H1047R) selectivity over SKBR3 (WT): B (B denotes 20-fold≥value>5-fold) | IC50: 750 to 2000 nM

SMILES: Cc1cc(C(C)Nc2ccccc2C(=O)O)c2nc(N3Cc4ccccc4C3)nc(NC3CC3O)c2c1 (stereo not drawn) [Compound 65]
T47D pAKT S473 HTRF IC50 (H1047R): T47D (H1047R) selectivity over SKBR3 (WT): B (B denotes 20-fold≥value>5-fold) | IC50: 750 to 2000 nM

SMILES: Cc1cc([C@@H](C)Nc2ccccc2C(=O)O)c2nc(N3Cc4ccccc4C3)ncc2c1 [Compound 35]
T47D pAKT S473 HTRF IC50 (H1047R): T47D (H1047R) selectivity over SKBR3 (WT): C (C denotes ≤5-fold) | IC50: ≥ 2000 nM

SMILES: Cc1cc(C(C)Nc2ccccc2C(=O)O)c2nc(N3Cc4ccccc4C3)nc(NC3COC3)c2c1 (stereo not drawn) [Compound 71]
T47D pAKT S473 HTRF IC50 (H1047R): T47D (H1047R) selectivity over SKBR3 (WT): C (C denotes ≤5-fold) | IC50: ≥ 2000 nM

SMILES: Cc1cc(C(C)Nc2ccccc2C(=O)O)c2nc(N3Cc4ccccc4C3)nc(C3CC3O)c2c1 (stereo not drawn) [Compound 69]
T47D pAKT S473 HTRF IC50 (H1047R): T47D (H1047R) selectivity over SKBR3 (WT): B (B denotes 20-fold≥value>5-fold) | IC50: 750 to 2000 nM

SMILES: Cc1cc(C(C)Nc2ccccc2C(=O)O)c2nc(N3Cc4ccccc4C3)nc(N3CC(O)C3)c2c1 (stereo not drawn) [Compound 63, 2-((1-(4-(3-hydroxyazetidin-1-yl)-2-(isoindolin-2-yl)-6-methylquinazolin-8-yl)ethyl)amino)benzoic acid]
T47D pAKT S473 HTRF IC50 (H1047R): T47D (H1047R) selectivity over SKBR3 (WT): B (B denotes 20-fold≥value>5-fold) | IC50: 750 to 2000 nM

SMILES: Cc1cc([C@@H](C)Nc2ccccc2C(=O)O)c2[nH]c(N3CCOCC3)nc(=O)c2c1 [Compound 18]
T47D pAKT S473 HTRF IC50 (H1047R): T47D (H1047R) selectivity over SKBR3 (WT): C (C denotes ≤5-fold) | IC50: ≥ 2000 nM

SMILES: Cc1cc(C(C)Nc2ccccc2C(=O)O)c2cc(N3Cc4ccccc4C3)ncc2c1 (stereo not drawn) [Compound 59]
T47D pAKT S473 HTRF IC50 (H1047R): T47D (H1047R) selectivity over SKBR3 (WT): B (B denotes 20-fold≥value>5-fold) | IC50: 750 to 2000 nM

SMILES: Cc1cc(C(C)Nc2ccccc2C(=O)O)c2nc(N3Cc4ccccc4C3)nc(C(N)=O)c2c1 (stereo not drawn) [Compound 24]
T47D pAKT S473 HTRF IC50 (H1047R): T47D (H1047R) selectivity over SKBR3 (WT): A (A denotes >20-fold) | IC50: < 750 nM

SMILES: Cc1cc(C(C)Nc2ccccc2C(=O)O)c2nc(N3Cc4ccccc4C3)ccc2c1 (stereo not drawn) [Compound 30]
T47D pAKT S473 HTRF IC50 (H1047R): T47D (H1047R) selectivity over SKBR3 (WT): B (B denotes 20-fold≥value>5-fold) | IC50: 750 to 2000 nM

SMILES: Cc1cc([C@@H](C)Nc2ccccc2C(=O)O)c2nc(N3Cc4ccccc4C3)nc(OC3COC3)c2c1 [Compound 146]
T47D pAKT S473 HTRF IC50 (H1047R): T47D (H1047R) selectivity over SKBR3 (WT): A (A denotes >20-fold) | IC50: < 750 nM

Now from value to compound:

T47D pAKT S473 HTRF IC50 (H1047R): T47D (H1047R) selectivity over SKBR3 (WT): A (A denotes >20-fold) | IC50: < 750 nM
SMILES: Cc1cc(C(C)Nc2ccccc2C(=O)O)c2nc(-c3ccc(C4CC4)nc3)n(C)c(=O)c2c1 (stereo not drawn) [Compound 136]

T47D pAKT S473 HTRF IC50 (H1047R): T47D (H1047R) selectivity over SKBR3 (WT): A (A denotes >20-fold) | IC50: < 750 nM
SMILES: Cc1cc([C@@H](C)Nc2ccccc2C(=O)O)c2nc(-c3ccnc(C#N)c3)n(C)c(=O)c2c1 [Compound 143]

T47D pAKT S473 HTRF IC50 (H1047R): T47D (H1047R) selectivity over SKBR3 (WT): A (A denotes >20-fold) | IC50: < 750 nM
SMILES: Cc1cc([C@@H](C)Nc2ccccc2C(=O)O)c2nc(-c3cccnc3)n(C)c(=O)c2c1 [Compound 137]

T47D pAKT S473 HTRF IC50 (H1047R): T47D (H1047R) selectivity over SKBR3 (WT): C (C denotes ≤5-fold) | IC50: ≥ 2000 nM
SMILES: Cc1cc([C@H](C)Nc2ccccc2C(=O)O)c2nc(-c3ccc(F)cc3)n(C)c(=O)c2c1 [Compound 39]

T47D pAKT S473 HTRF IC50 (H1047R): T47D (H1047R) selectivity over SKBR3 (WT): B (B denotes 20-fold≥value>5-fold) | IC50: < 750 nM
SMILES: Cc1cc([C@@H](C)Nc2ccccc2C(N)=O)c2nc(-c3cccnc3)n(C)c(=O)c2c1 [Compound 141]

T47D pAKT S473 HTRF IC50 (H1047R): T47D (H1047R) selectivity over SKBR3 (WT): C (C denotes ≤5-fold) | IC50: ≥ 2000 nM
SMILES: Cc1cc([C@@H](C)Nc2ccccc2C(=O)O)c2nc(N3CCC(C)(C)CC3)nc(O)c2c1 [Compound 12]

T47D pAKT S473 HTRF IC50 (H1047R): T47D (H1047R) selectivity over SKBR3 (WT): A (A denotes >20-fold) | IC50: < 750 nM
SMILES: Cc1cc([C@@H](C)Nc2ccccc2S(N)(=O)=O)c2nc(-c3cccnc3)n(C)c(=O)c2c1 [Compound 142]

T47D pAKT S473 HTRF IC50 (H1047R): T47D (H1047R) selectivity over SKBR3 (WT): B (B denotes 20-fold≥value>5-fold) | IC50: < 750 nM
SMILES: Cc1cc([C@@H](C)Nc2ccccc2C(=O)O)c2nc(-c3cnc(C)c(Cl)c3)n(C)c(=O)c2c1 [Compound 140]

T47D pAKT S473 HTRF IC50 (H1047R): T47D (H1047R) selectivity over SKBR3 (WT): A (A denotes >20-fold) | IC50: < 750 nM
SMILES: Cc1cc(C(C)Nc2ccccc2C(=O)O)c2nc(-c3ccc4c(c3)c(C)cn4C)n(C)c(=O)c2c1 (stereo not drawn) [Compound 133]

T47D pAKT S473 HTRF IC50 (H1047R): T47D (H1047R) selectivity over SKBR3 (WT): A (A denotes >20-fold) | IC50: < 750 nM
SMILES: Cc1cc([C@@H](C)Nc2ccccc2C(=O)O)c2nc(-c3ccc(C)nc3)n(C)c(=O)c2c1 [Compound 135]

T47D pAKT S473 HTRF IC50 (H1047R): T47D (H1047R) selectivity over SKBR3 (WT): A (A denotes >20-fold) | IC50: < 750 nM
SMILES: Cc1cc(C(C)Nc2ccccc2C(=O)O)c2cc(-c3ccc4c(c3)c(C)nn4C)n(C)c(=O)c2c1 (stereo not drawn) [Compound 87]

T47D pAKT S473 HTRF IC50 (H1047R): T47D (H1047R) selectivity over SKBR3 (WT): A (A denotes >20-fold) | IC50: < 750 nM
SMILES: Cc1cc([C@@H](C)Nc2ccccc2C(=O)O)c2nc(-c3ccc4c(c3)c(C)cn4C)n(C)c(=O)c2c1 [Compound 134]

T47D pAKT S473 HTRF IC50 (H1047R): T47D (H1047R) selectivity over SKBR3 (WT): A (A denotes >20-fold) | IC50: < 750 nM
SMILES: Cc1cc([C@@H](C)Nc2ccccc2C(=O)O)c2cc(-c3ccc4c(c3)c(C)nn4C)n(C)c(=O)c2c1 [Compound 86]

T47D pAKT S473 HTRF IC50 (H1047R): T47D (H1047R) selectivity over SKBR3 (WT): A (A denotes >20-fold) | IC50: < 750 nM
SMILES: Cc1cc([C@@H](C)Nc2ccccc2C(=O)O)c2nc(-c3ccc(C#N)nc3)n(C)c(=O)c2c1 [Compound 138]

T47D pAKT S473 HTRF IC50 (H1047R): T47D (H1047R) selectivity over SKBR3 (WT): C (C denotes ≤5-fold) | IC50: ≥ 2000 nM
SMILES: Cc1cc([C@H](C)Nc2ccccc2C(=O)O)c2nc(N3CCC(C)(C)CC3)ncc2c1 [Compound 7]

T47D pAKT S473 HTRF IC50 (H1047R): T47D (H1047R) selectivity over SKBR3 (WT): B (B denotes 20-fold≥value>5-fold) | IC50: 750 to 2000 nM
SMILES: Cc1cc([C@H](C)Nc2ccccc2C(=O)O)c2nc(N3CCC(C)(C)CC3)nc(O)c2c1 [Compound 11]

T47D pAKT S473 HTRF IC50 (H1047R): T47D (H1047R) selectivity over SKBR3 (WT): B (B denotes 20-fold≥value>5-fold) | IC50: < 750 nM
SMILES: Cc1cc(C(C)Nc2ccccc2C(=O)O)c2nc(-c3ccncc3)nc(O)c2c1 (stereo not drawn) [Compound 9, 2-((1-(4-hydroxy-6-methyl-2-(pyridin-4-yl)quinazolin-8-yl)ethyl)amino)benzoic acid]
